Results reported in article PMC11474193, “A cub and sushi domain-containing protein with esterase-like activity confers insecticide resistance in the Indian malaria vector Anopheles stephensi” (The Journal of Biological Chemistry, 2024).

Experiments:
[1] = test system: T1, CUB and Sushi Domain-containing Insecticide Resistance (CSDIR) protein (XP_035915664.1); assay: SPR, steady-state fit; degradation by the protein also shown by UPLC; type: binding, Anopheles stephensi
T1 construct: CSDIR^913-1190 (C-terminal CUB and Sushi domains, recombinant in E. coli)

[2] = test system: T1, CUB and Sushi Domain-containing Insecticide Resistance (CSDIR) protein (XP_035915664.1); assay: SPR, immobilized CSDIR913-1190, steady-state fit; type: binding, Anopheles stephensi

Row | SMILES | Kd [1] | Kd [2]
1 | CC1(C)[C@H](C(=O)O[C@H](C#N)c2cccc(Oc3ccccc3)c2)[C@@H]1C=C(Br)Br [deltamethrin] | 46.7 µM | 
2 | CCOC(=O)CC(SP(=S)(OC)OC)C(=O)OCC (centres unmarked) [malathion] |  | 6.43 µM
